One molecule from patent publication US20210106566A1, “PHARMACEUTICAL COMPOSITION FOR TREATING AND/OR PREVENTING PERIPHERAL NEUROPATHY OR SPINAL CORD INJURY” (NATIONAL UNIVERSITY CORPORATION NAGOYA UNIVERSITY, priority 2015, published 2021) can be followed below.

For assay [1], the system named is primary motor neurons. The assay can be described thus: MTS assay of cell survival under oxidative stress (hydrogen peroxide). It is filed as cell-based, mouse. Conditions: zonisamide 1 hour before 100 μmol/L hydrogen peroxide for 24 hours; dose-dependent. The protocol: Cell survival rate was assessed by MTS assay (CellTiter 96 Aqueous One Solution Cell Proliferation Assay, Promega), which measured the activity of mitochondrial reductase. Primary cultured motor neurons were cultured in Sumilon neuron culture medium for 24 hours, and the medium was then exchanged to DMEM/F12 supplemented with 0.5% FBS and cultured for 24 hours. Zonisamide was added at various concentrations for 1 hour and 100 μmol/L hydrogen peroxide was then added for 24 hours. The cells were incubated with MTS reagent for 2 hours. MTS signal was quantified on a microplate reader (PowerScan HT, DS PharmaBiomedical). The group of cells treated without hydrogen peroxide was used as a control for evaluating MTS signal.

The test system of assay [2] is severely crushed spinal cord model mice. In words: Severely crushed spinal cord model mice: motor function with BMS score. The settings on record: for BMS score: 30 mg/kg/day intragastrically. The assay is classed as in vivo, mouse. An excerpt: Female C57BL/6J mice (8 weeks old; 19.5-22.0 g) were purchased from Charles River. The female C57BL/6J mice were anesthetized by intraperitoneally administering pentobarbital sodium and underwent back incision under a sterile condition to perform laminectomy at the 10th thoracic vertebra. The spinal cord was crushed at 100 kdyn using a tip with a diameter of 1.35 mm on IH Spinal Cord Impactor. After the occurrence of hematoma in the spinal cord was confirmed under a microscope, the wound was closed and 1 ml of physiological saline was subcutaneously injected into the posterior neck region to prevent dehydration. The mice with spinal cord injury were separated into two groups in a blinded fashion. Zonisamide was diluted with olive oil (solvent) to 3 mg/mL and intragastrically administered to mice in one group at 30 mg/kg/day using a disposable probe needle (flexible type, Fuchigami) for consecutive days from the day of surgery. Mice in the other group received only the solvent using a similar procedure for consecutive days. One day after surgery, motor function of mice in both groups was assessed using BMS score (Basso mouse scale; Li et. al. J Neurosurg Spine 4: 165-173 (2006)) in a blinded fashion to select the mice with BMS score of 1 or lower and consider them as severely crushed spinal cord model mice. The mice received 200 mL of water containing trimethoprim (16 mg)/sulfamethoxazole (80 mg) from a feeder to prevent infection for 3 days after surgery. BMS score is scored by rating ankle movement, weight support, stepping, coordinated motion of forelimbs and hindlimbs (coordination), hindlimb position in walking, trunk stability, and tail position, and ranges from 0 to 9; score 0 corresponds to complete paralysis of hindlimb and score 9 corresponds to normal motion; more specifically, BMS score is described as follows: 0: No ankle movement. 1: Slight ankle movement (less than 50% of the range of motion). 2: Extensive ankle movement (equal to and greater than 50% of the range of motion). 3: Plantar placing of the paw or occasional dorsal stepping. 4: Occasional planter stepping with weight support (equal to and less than 50% of forward movement). 5: Frequent or consistent planter stepping (equal to and greater than 50% of forward movement), no coordination of limbs; or frequent or consistent planter stepping, some coordination of limbs, hindlimb paws rotated at initial contact and lift off. 6: Some coordination of limbs, hindlimb paws parallel at initial contact and rotated at lift off; or mostly coordinated, hindlimb paws rotated at initial contact and lift off. […] BMS scores were measured at days 1, 3, 7, 14, 21, and 28 after surgery in a blinded fashion (FIG. 14).

In assay [3] the test system is primary motor neurons. The assay can be described thus: Scratch assay of neurite regeneration. It is filed as cell-based, mouse. The settings on record: 0, 1, 10, or 20 μmol/L, 48 hours after scratch. The protocol:
Primary cultured motor neurons were seeded in a Nun Lab-Tek Chamber Slide (Thermo Scientific) coated with poly-L-lysine at 8.0×10^4 cells/cm^2×0.7 cm^2/well and then cultured in Sumilon neuron culture medium for 48 hours. Neurites of primary motor neurons were linearly scratched off with a 200 μL sterile pipette tip. The cells were immediately rinsed with PBS and cultured in Sumilon neuron culture medium containing 0, 1, 10, or 20 μmol/L zonisamide for 48 hours. The cells were fixed in 4% paraformaldehyde and immunostained with neuron-specific β-III tubulin monoclonal antibody (1:1000, MAB1195, R&D systems) and Alexa Fluor 488-conjugated goat anti-mouse secondary antibody (Life Technologies). Images of the scratched areas were acquired on a microscope (Olympus LX71). The neurite lengths of primary motor neurons in the scratched areas were automatically measured with MetaMorph software (Universal Imaging).

In the case of `NS(=O)(=O)Cc1noc2ccccc12` [Zonisamide, 3-sulfamoylmethyl-1,2-benzisoxazole], in the assay on primary motor neurons [1], the “number of living cells (MTS signal)” value was “significantly increased”. Also, the BMS score was 3.2±0.3 in assay [2] (day 14 after surgery), 3.2±0.4 in assay [2] (day 21 after surgery) and 3.7±0.4 in assay [2] (day 28 after surgery). In addition, the “BMS score compared to the control group” value in assay [2] (since day 14 after surgery) is recorded as “significantly higher”. Further, in the assay on primary motor neurons [3], the “neurite length in the scratch assay” value was “dose-dependent increase”.
